The target in test [1] is human JAK1 (Homo sapiens, UniProt P23458). The test can be described thus: In vitro JAK kinase assay (HTRF, Example A). Format: biochemical. To be noted: 1 mM ATP. A general note: TR-FRET usually uses a lanthanide donor and a delayed reading to cut background.
Method: (§1) The catalytic activity of JAK1, JAK2 or JAK3 was assayed by measuring the phosphorylation of a biotinylated peptide. The phosphorylated peptide was detected by homogenous time resolved fluorescence (HTRF). […] Reactions were carried out at room temperature for 1 hour and then stopped with 20 μL 45 mM EDTA, 300 nM SA-APC, 6 nM Eu-Py20 in assay buffer (Perkin Elmer, Boston, MA). Binding to the Europium labeled antibody took place for 40 minutes and HTRF signal was measured on a Fusion plate reader (Perkin Elmer, Boston, MA).
In test [2] the target is human JAK2 (Homo sapiens (Human), UniProt O60674). Briefly: In vitro JAK kinase assay (HTRF, Example A). Format: biochemical. The following applies: JAK2/JAK1 IC50 ratio, 1 mM ATP.
Method: as §1

Molecules are shown by their SMILES.

human JAK2, sequence (O60674 828-1132): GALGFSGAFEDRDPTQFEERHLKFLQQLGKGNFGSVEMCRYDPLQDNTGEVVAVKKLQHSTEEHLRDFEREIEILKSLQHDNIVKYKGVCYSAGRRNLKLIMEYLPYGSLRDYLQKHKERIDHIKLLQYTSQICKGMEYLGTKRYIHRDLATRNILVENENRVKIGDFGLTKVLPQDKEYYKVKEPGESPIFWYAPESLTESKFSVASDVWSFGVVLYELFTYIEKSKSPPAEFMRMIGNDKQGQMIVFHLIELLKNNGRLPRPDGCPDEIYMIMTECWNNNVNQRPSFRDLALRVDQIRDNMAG

`N#CCC(C1CCN(c2cccc(Cl)n2)C1)n1cc(-c2ncnc3[nH]ccc23)cn1` (single isomer, unassigned) [Compound 6, 3-[1-(6-chloropyridin-2-yl)pyrrolidin-3-yl]-3-[4-(7H-pyrrolo[2,3-d]pyrimidin-4-yl)-1H-pyrazol-1-yl]propanenitrile] displayed an IC50 in test [1] of less than 10 nM. The JAK2/JAK1 in test [2] was greater than 10.

Regarding `N#CCC1(n2cc(-c3ncnc4[nH]ccc34)cn2)CN([C@H]2CC[C@@H](Oc3cc(CN4CC[C@H](O)C4)cc(C(F)(F)F)n3)CC2)C1` [Compound 22, {1-(cis-4-{[4-{[(3S)-3-hydroxypyrrolidin-1-yl]methyl}-6-(trifluoromethyl)pyridin-2-yl]oxy}cyclohexyl)-3-[4-(7H-pyrrolo[2,3-d]pyrimidin-4-yl)-1H-pyrazol-1-yl]azetidin-3-yl}acetonitrile], the half-maximal inhibitory concentration (IC50) in test [1] was less than 10 nM. Besides, the JAK2/JAK1 in test [2] is greater than 10.

Molecule `CCNCc1cc(O[C@H]2CC[C@@H](N3CC(CC#N)(n4cc(-c5ncnc6[nH]ccc56)cn4)C3)CC2)nc(C(F)(F)F)c1` [Compound 19, {1-(cis-4-{[4-[(ethylamino)methyl]-6-(trifluoromethyl)pyridin-2-yl]oxy}cyclohexyl)-3-[4-(7H-pyrrolo[2,3-d]pyrimidin-4-yl)-1H-pyrazol-1-yl]azetidin-3-yl}acetonitrile] gave an IC50 in test [1] of less than 10 nM. Further, the JAK2/JAK1 in test [2] was greater than 10.

As for `N#CC[C@]1(n2cc(-c3ncnc4[nH]ccc34)cn2)C[C@H](N2CCC(Oc3cc(CN4CCC[C@@H]4CO)cc(C(F)(F)F)n3)CC2)C1` [Compound 13, {trans-3-(4-{[4-{[(2R)-2-(hydroxymethyl)pyrrolidin-1-yl]methyl}-6-(trifluoromethyl)pyridin-2-yl]oxy}piperidin-1-yl)-1-[4-(7H-pyrrolo[2,3-d]pyrimidin-4-yl)-1H-pyrazol-1-yl]cyclobutyl}acetonitrile], the IC50 in test [1] was less than 10 nM. Also, the JAK2/JAK1 in test [2] was greater than 10.

On to `N#CCC(C1CCN(c2nc3cccnc3o2)C1)n1cc(-c2ncnc3[nH]ccc23)cn1` (centres unmarked) [Compound 7, 3-(1-[1,3]oxazolo[5,4-b]pyridin-2-ylpyrrolidin-3-yl)-3-[4-(7H-pyrrolo[2,3-d]pyrimidin-4-yl)-1H-pyrazol-1-yl]propanenitrile], for which, in test [1], the 50% inhibitory concentration (IC50) was less than 10 nM. For the same molecule, in test [2], the JAK2/JAK1 is greater than 10.

On to `C[C@@H](CO)NCc1cc(OC2CCN([C@H]3C[C@](CC#N)(n4cc(-c5ncnc6[nH]ccc56)cn4)C3)CC2)nc(C(F)(F)F)c1` [Compound 23, {trans-3-(4-{[4-({[(1S)-2-hydroxy-1-methylethyl]amino}methyl)-6-(trifluoromethyl)pyridin-2-yl]oxy}piperidin-1-yl)-1-[4-(7H-pyrrolo[2,3-d]pyrimidin-4-yl)-1H-pyrazol-1-yl]cyclobutyl}acetonitrile], for which, in test [1], the IC50 is less than 10 nM. Moreover, the JAK2/JAK1 in test [2] was greater than 10.

`N#CC[C@]1(n2cc(-c3ncnc4[nH]ccc34)cn2)C[C@H](N2CCN(C(=O)c3ccnc(C(F)(F)F)n3)CC2)C1` [Compound 10, [trans-1-[4-(7H-pyrrolo[2,3-d]pyrimidin-4-yl)-1H-pyrazol-1-yl]-3-(4-{[2-(trifluoromethyl)pyrimidin-4-yl]carbonyl}piperazin-1-yl)cyclobutyl]acetonitrile] had an IC50 in test [1] of less than 10 nM. Besides, the JAK2/JAK1 in test [2] was greater than 10.

As to `C[C@@H](O)c1nc2cnc3ccsc3c2n1[C@H]1CC[C@H](CC#N)OC1` [Compound 5, ((2R,5S)-5-{2-[(1R)-1-hydroxyethyl]-1H-imidazo[4,5-d]thieno[3,2-b]pyridin-1-yl}tetrahydro-2H-pyran-2-yl)acetonitrile], the IC50 in test [1] is less than 100 nM. Besides, the JAK2/JAK1 in test [2] is listed as greater than 10.

Turning to `N#CCC1(n2cc(-c3ncnc4[nH]ccc34)cn2)CN([C@H]2CC[C@@H](Oc3cc(CCO)nc(C(F)(F)F)n3)CC2)C1` [Compound 18, {1-(cis-4-{[6-(2-hydroxyethyl)-2-(trifluoromethyl)pyrimidin-4-yl]oxy}cyclohexyl)-3-[4-(7H-pyrrolo[2,3-d]pyrimidin-4-yl)-1H-pyrazol-1-yl]azetidin-3-yl}acetonitrile], in test [1], the half-inhibitory concentration (IC50) was less than 10 nM. Moreover, in test [2], the JAK2/JAK1 was greater than 10.

In turn, `C[C@H](NC(=O)c1cc(F)c(N2CC(CC#N)(n3cc(-c4ncnc5[nH]ccc45)cn3)C2)cc1F)C(F)(F)F` [Compound 16, 4-{3-(cyanomethyl)-3-[4-(7H-pyrrolo[2,3-d]pyrimidin-4-yl)-1H-pyrazol-1-yl]azetidin-1-yl}-2,5-difluoro-N-[(1S)-2,2,2-trifluoro-1-methylethyl]benzamide] came in with a concentration for half-maximal inhibition (IC50) in test [1] of less than 10 nM. Besides, in test [2], the JAK2/JAK1 was greater than 10.

For `C[C@@H](O)CNCc1cc(OC2CCN([C@H]3C[C@](CC#N)(n4cc(-c5ncnc6[nH]ccc56)cn4)C3)CC2)nc(C(F)(F)F)c1` [Compound 24, {trans-3-(4-{[4-({[(2R)-2-hydroxypropyl]amino}meth-yl)-6-(trifluoromethyl)pyridin-2-yl]oxy}piperidin-1-yl)-1-[4-(7H-pyrrolo[2,3-d]pyrimidin-4-yl)-1H-pyrazol-1-yl]cyclobutyl}acetonitrile], the IC50 in test [1] is less than 10 nM. Also, in test [2], the JAK2/JAK1 is reported as greater than 10.

As for `C[C@H](O)CNCc1cc(OC2CCN([C@H]3C[C@](CC#N)(n4cc(-c5ncnc6[nH]ccc56)cn4)C3)CC2)nc(C(F)(F)F)c1` [Compound 25, {trans-3-(4-{[4-({[(2S)-2-hydroxypropyl]amino}meth-yl)-6-(trifluoromethyl)pyridin-2-yl]oxy}piperidin-1-yl)-1-[4-(7H-pyrrolo[2,3-d]pyrimidin-4-yl)-1H-pyrazol-1-yl]cyclobutyl}acetonitrile], in test [1], the 50% inhibitory concentration (IC50) was less than 10 nM. Moreover, the JAK2/JAK1 in test [2] was greater than 10.

The molecule `N#CC[C@]1(n2cc(-c3ncnc4[nH]ccc34)cn2)C[C@H](N2CCC(Oc3cc(CN4CCC[C@H]4CO)cc(C(F)(F)F)n3)CC2)C1` [Compound 12, {trans-3-(4-{[4-{[(2S)-2-(hydroxymethyl)pyrrolidin-1-yl]methyl}-6-(trifluoromethyl)pyridin-2-yl]oxy}piperidin-1-yl)-1-[4-(7H-pyrrolo[2,3-d]pyrimidin-4-yl)-1H-pyrazol-1-yl]cyclobutyl}acetonitrile] showed an IC50 in test [1] of less than 10 nM. Further, the JAK2/JAK1 in test [2] is on record as greater than 10.

As to `N#CCC(CN1CCN(C(=O)c2ccc(C#N)cc2F)CC1)n1cc(-c2ncnc3[nH]ccc23)cn1` (centres unmarked) [Compound 8, 4-[(4-{3-cyano-2-[4-(7H-pyrrolo[2,3-d]pyrimidin-4-yl)-1H-pyrazol-1-yl]propyl}piperazin-1-yl)carbonyl]-3-fluorobenzonitrile], in test [1], the IC50 is less than 10 nM. Moreover, the JAK2/JAK1 in test [2] is greater than 10.

In the case of `N#CCC1(n2cc(-c3ncnc4[nH]ccc34)cn2)CN(C2CCN(C(=O)c3ccnc(C(F)(F)F)n3)CC2)C1` [Compound 3, [3-[4-(7H-pyrrolo[2,3-d]pyrimidin-4-yl)-1H-pyrazol-1-yl]-1-(1-{[2-(trifluoromethyl)pyrimidin-4-yl]carbonyl}piperidin-4-yl)azetidin-3-yl]acetonitrile], the IC50 in test [1] was less than 10 nM. In addition, the JAK2/JAK1 in test [2] was greater than 10.

`CC(C)(O)c1cc(O[C@H]2CC[C@@H](N3CC(CC#N)(n4cc(-c5ncnc6[nH]ccc56)cn4)C3)CC2)nc(C(F)(F)F)c1` [Compound 20, {1-(cis-4-{[4-(1-hydroxy-1-methylethyl)-6-(trifluoromethyl)pyridin-2-yl]oxy}cyclohexyl)-3-[4-(7H-pyrrolo[2,3-d]pyrimidin-4-yl)-1H-pyrazol-1-yl]azetidin-3-yl}acetonitrile] came in with an IC50 in test [1] of less than 10 nM. Further, in test [2], the JAK2/JAK1 was greater than 10.

For orientation: IC50 means the concentration at which inhibition is half-maximal. The low end stands for greater potency in that assay, the high end for weaker potency in that assay.
